Results on 6 compounds are retold here after patent US6436996B1, “Modulation of nitric oxide production” (Duke University, priority 1997, dated 2002).

Entries after “also recorded” stand apart in the source; their conditions may differ.

In the assay the test system is human monocyte-derived macrophage cells. Kind of assay: Nitrite (NO) production in gamma-IFN-primed human monocyte-derived macrophages, Griess reaction. The assay is classed as cell-based. Conditions: for nitrite levels compared to poly I:C treatment alone: Aβ peptide (5 μM) plus APOE (10 nM) plus poly I:C (50 μg/ml); for change in nitrite levels compared to untreated human MDMs: Aβ peptide alone, 1 to 10 μgM. On the procedure: Cell Cultures: Human monocytes from normal, adult volunteers were generously provided by Dr. D. Webb, Center for Biologics Evaluation and Research, NIH, Bethesda, Md. Elutriated monocytes were cultured in Dulbecco's Modified Eagle Medium (DMEM) containing 20% fetal calf serum, 10% human […] (ABI Technologies, Columbia, Md.) and […] human M-Colony Stimulating Factor (M-CSF, Genzyme, Boston, Mass.) at 37° C. in a humidified atmosphere of 5% CO2, 95% air. After 5 to 7 days, morphological changes including spreading and branching of the cells signaled differentiation from monocytes to macrophages and are now commonly called “Monocyte-Derived Macrophages” (MDMs). MDM cells were removed from the flasks by gentle trypsinization, plated at 40,000 cells/well into 96 well microtiter plates and allowed to recover overnight. These MDM cells were then primed by exposure to 1000 U/ml recombinant human gamma interferon (gamma-IFN, Sigma Chemical Co., St. Louis, Mo.) diluted into HL-1 serum free media (Hycor Biomedical Include, Irvine, Calif.). At the end of 12 h priming with gamma-IFN, the priming media was replaced with HL-1 serum free media before experimental treatments as listed in the text. Following experimental treatments, the media was removed and assayed for nitrite levels using the Griess reaction [Colton, C. et al., Mol. Chem. Neuropathol. 28, 15-20 (1996)].
Treatment Factors and Conditions: M-CSF-differentiated and gamma-IFN-primed monocyte-derived macrophage cells were treated by incubation with varying concentrations of Aβ 1-40, its reverse sequence Aβ 40-1 and a non-toxic Aβ fragment, Aβ 1-28 (Bachem, Torrance, Calif.). Aβ peptides were diluted into sterile, double-distilled water and allowed to aggregate at room temperature for 48 h and then stored at −80° C. until use. Human apolipoprotein-E purified protein (Chemicon International, Inc., Temecula, Calif.) was reconstituted in serum free media and added to cells. The double stranded polyribonucleotide, polyinosinic:polycytidylic acid (poly I:C potassium salt, Sigma Chemical Co., St. Louis, Mo.) was also reconstituted into serum free media and used to stimulate nitric oxide (NO) production as described by J. Snell et al., Journal of Leukocyte Biology, 62, 369 (1997).
Measurement of Nitric Oxide (NO): After treatment, conditioned media was removed from cells and the level of nitrite, which is a stable end-product of NO release in biological systems, measured using the Griess reaction [Colton, C., supra]. Briefly, conditioned media were transferred to a new 96 well microtiter plate and an equal volume of Griess reagents were added to each well. After 10 minutes of incubation at room temperature, color development was assessed at 550 nm using a plate reader. Nitrite levels are presented as μM/well which contained 40,000 cells and an average (±SEM) obtained for at least 4 wells assayed per experimental condition for each of at least 4 individual donors. Treatment with the nitric oxide synthase (NOS) inhibitor, N-G-methyl-l-arginine (L-NMMA) was used to determine the level of NOS-mediated NO production. Statistical significance was determined using a one way analysis of variance (ANOVA).
In general terms: The Griess reaction detects nitrite, a stable product of nitric oxide.

Regarding `CNC(=N)NCCC[C@H](N)C(=O)O` [L-NMMA, N-G-methyl-l-arginine], the “effect of NOS inhibitor on nitrite levels” value (L-NMMA added to APOE plus poly I:C stimulated MDMs, data not shown) is “reduced nitrite levels to those seen in the unstimulated controls; also recorded: inhibitable”.

In the case of “boiled APOE: APOE denatured by boiling, control for non-denatured APOE”, the “nitrite levels compared to poly I:C alone” value (boiled (denatured) APOE together with poly I:C, data not shown) is reported as “unable to increase NO production”.

“APOE: Human apolipoprotein-E purified protein (Chemicon International), reconstituted in serum free media”: the “overall increase in nitrite levels compared to untreated or APOE-alone treated MDMs” value (10 nM APOE together with 50 μg/ml poly I:C) stood at 282%. Further, the “increase in nitrite levels compared to poly I:C alone” value (10 nM APOE together with 50 μg/ml poly I:C, 5 days, p<0.009) worked out at 68%. The “nitrite levels compared to untreated controls” value (APOE alone, 1 nM to 100 nM, 5 days, gamma-IFN-primed MDMs) is given as “no significant increase”. The “NO released compared to unprimed cells” value (APOE and poly I:C) is on record as approximately 3 fold.

Consider “Aβ 1-28: non-toxic amyloid-βeta peptide fragment 1-28 (Bachem)”, for which the “nitrite levels compared to poly I:C treatment alone” value (5 days) is “same result”. In addition, the “change in nitrite levels compared to untreated human MDMs” value (5 days, gamma-IFN-primed MDMs) was “no significant change”.

As for “polyinosinic:polycytidylic acid [poly I:C]”, the “increase in nitrite levels compared to untreated controls” value (gamma-IFN-primed MDMs, 50 μg/ml poly I:C alone, 5 days) was found to be 126%.

“Aβ 1-40: toxic amyloid-βeta peptide 1-40 fragment of APP (Bachem), aggregated 48 h”: where the note is “Aβ 1-40 and APOE in the absence of poly I:C”, the “nitrite levels compared to untreated control MDMs” value was “no significant effect”. The “nitrite levels compared to poly I:C treatment alone” value (5 days) is recorded as “no significant difference”. The “change in nitrite levels compared to untreated human MDMs” value (5 days, gamma-IFN-primed MDMs) is listed as “not significantly different; also recorded: no significant change”. Further, for the setting “Aβ peptide combined with 50 μg/ml poly I:C, 5 days”, the “nitrite levels compared to poly I:C alone” value was “not significantly different”.
